From ChEMBL document CHEMBL4265948, “A cardiac glycoside HTF-1 isolated from Helleborus thibetanus Franch displays potent in vitro anti-cancer activity via caspase-9, MAPK and PI3K-Akt-mTOR pathways” (Eur J Med Chem, 2018)
Calls of active or inactive are those of the source. No cut-off for these calls is given here.

Tests used:
HeLa [1] = assay: Induction of apoptosis in human HeLa cells assessed as viable cells at 200 nM after 24 hrs by Annexin-V-FITC/propidium iodide staining based flow cytometry (reference value: 85.8%); type: functional; settings: read-out: Activity
HeLa [2] = assay: Cytotoxicity activity against human HeLa cells after 48 hrs by MTT assay; type: functional, cell-based
HeLa [3] = assay: Induction of apoptosis in human HeLa cells assessed as early apoptotic cells at 200 nM after 24 hrs by Annexin-V-FITC/propidium iodide staining based flow cytometry (reference value: 3.08%); type: functional
HeLa [4] = assay: Induction of apoptosis in human HeLa cells assessed as necrotic cells at 200 nM after 24 hrs by Annexin-V-FITC/propidium iodide staining based flow cytometry (reference value: 0.031%); type: functional
HeLa [5] = assay: Cytotoxicity activity against human HeLa cells after 24 hrs by MTT assay; type: functional, cell-based
HeLa [6] = assay: Induction of apoptosis in human HeLa cells assessed as late apoptotic cells at 200 nM after 24 hrs by Annexin-V-FITC/propidium iodide staining based flow cytometry (reference value: 11.1%); type: functional
HeLa [7] = assay: Cell cycle arrest in human HeLa cells assessed as accumulation at S phase at 100 nM after 24 hrs by propidium iodide staining based flow cytometry; type: functional
HeLa [8] = assay: Induction of apoptosis in human HeLa cells assessed as late apoptotic cells at 100 nM after 24 hrs by Annexin-V-FITC/propidium iodide staining based flow cytometry (reference value: 11.1%); type: functional
HeLa [9] = assay: Antimigratory activity in human HeLa cells at 25 to 50 nM after 24 to 48 hrs by wound healing assay; type: functional, cell-based
L02 = assay: Cytotoxicity activity against human LO2 cells after 24 to 48 hrs by MTT assay; type: cell-based
HeLa [10] = assay: Cell cycle arrest in human HeLa cells assessed as accumulation at S phase at 200 nM after 24 hrs by propidium iodide staining based flow cytometry relative to control; type: functional
HeLa [11] = assay: Induction of morphological changes in human HeLa cells assessed as increase in floating round cells at 200 to 500 nM after 24 hrs by bright field microscopic analysis; type: functional, cell-based
HeLa [12] = assay: Inhibition of PI3K phosphorylation in human HeLa cells after 24 hrs by Western blot analysis; type: cell-based
HeLa [13] = assay: Induction of morphological changes in human HeLa cells assessed as protrusions in cell membrane at 200 to 500 nM after 24 hrs by scanning electron microscopic analysis; type: functional, cell-based
MCF7 [14] = assay: Cytotoxicity activity against human MCF7 cells after 24 hrs by MTT assay; type: functional, cell-based; settings: MCF7, 24 h
[15] = target: c-Jun N-terminal kinase, JNK (Homo sapiens) (UniProt P45983+P53779+P45984); assay: Activation of JNK phosphorylation in human HeLa cells after 24 hrs by Western blot analysis; type: cell-based
HeLa [16] = assay: Induction of apoptosis in human HeLa cells assessed as cleaved caspase-3 expression at 50 to 200 nM after 24 hrs by Western blot analysis; type: functional, cell-based
HeLa [17] = assay: Induction of double strand breaks in human HeLa cells assessed as increase in phospho-gammaH2AX expression at 50 to 200 nM after 24 hrs by Western blot analysis; type: functional, cell-based
HeLa [18] = assay: Induction of apoptosis in human HeLa cells assessed as viable cells at 500 nM after 24 hrs by Annexin-V-FITC/propidium iodide staining based flow cytometry (reference value: 85.8%); type: functional; settings: read-out: Activity
[19] = target: Ribosomal protein S6 kinase (Homo sapiens) (UniProt P51812+Q9UBS0+O75676+Q15349+O75582+P23443+Q9UK32+Q15418); assay: Inhibition of p70S6K phosphorylation in human HeLa cells after 24 hrs by Western blot analysis; type: cell-based
MCF7 [20] = assay: Cytotoxicity activity against human MCF7 cells after 48 hrs by MTT assay; type: functional, cell-based; settings: MCF7, 48 h
HeLa [21] = assay: Induction of apoptosis in human HeLa cells assessed as necrotic cells at 500 nM after 24 hrs by Annexin-V-FITC/propidium iodide staining based flow cytometry (reference value: 0.031%); type: functional
HeLa [22] = assay: Induction of morphological changes in human HeLa cells assessed as chromatin condensation at 200 to 500 nM after 24 hrs by Hoechst 33342 staining based fluorescence microscopic analysis; type: functional, cell-based
HeLa [23] = assay: Induction of morphological changes in human HeLa cells assessed as cell shrinkage at 200 to 500 nM after 24 hrs by bright field microscopic analysis; type: functional, cell-based
HeLa [24] = assay: Cell cycle arrest in human HeLa cells assessed as accumulation at sub-G1 phase at 200 nM after 24 hrs by propidium iodide staining based flow cytometry; type: functional
HeLa [25] = assay: Induction of morphological changes in human HeLa cells assessed as impaired cell adhesion at 200 to 500 nM after 24 hrs by bright field microscopic analysis; type: functional, cell-based
[26] = target: Serine/threonine-protein kinase mTOR (Homo sapiens) (UniProt P42345); assay: Inhibition of mTOR phosphorylation in human HeLa cells after 24 hrs by Western blot analysis; type: cell-based
HeLa [27] = assay: Induction of morphological changes in human HeLa cells assessed as wizened nucleus at 200 to 500 nM after 24 hrs by Hoechst 33342 staining based fluorescence microscopic analysis; type: functional, cell-based
[28] = target: MAP kinase p38 (Homo sapiens) (UniProt O15264+Q15759+Q16539+P53778); assay: Effect on p38 phosphorylation in human HeLa cells at 50 to 200 nM after 24 hrs by Western blot analysis; type: cell-based
HeLa [29] = assay: Induction of apoptosis in human HeLa cells assessed as necrotic cells at 100 nM after 24 hrs by Annexin-V-FITC/propidium iodide staining based flow cytometry (reference value: 0.031%); type: functional
HepG2 [30] = assay: Cytotoxicity activity against human HepG2 cells after 24 hrs by MTT assay; type: functional, cell-based; settings: HepG2, 24 h
HeLa [31] = assay: Antiproliferative activity against human HeLa cells assessed as inhibition of cell proliferation at 100 to 200 nM after 24 hrs by Edu/Hoechst 33342 staining based fluorescence microscopic analysis; type: functional
HeLa [32] = assay: Down regulation of Bcl2 expression in human HeLa cells at 50 to 200 nM after 24 hrs by Western blot analysis; type: functional, cell-based
HeLa [33] = assay: Induction of morphological changes in human HeLa cells assessed as DNA fragmentation at 200 to 500 nM after 24 hrs by Hoechst 33342 staining based fluorescence microscopic analysis; type: functional, cell-based
HeLa [34] = assay: Induction of morphological changes in human HeLa cells assessed as cell membrane blebbing at 200 to 500 nM after 24 hrs by scanning electron microscopic analysis; type: functional, cell-based
HeLa [35] = assay: Inhibition of colony formation in human HeLa cells at 50 nM after 24 hrs by crystal violet staining based microscopic analysis; type: functional, cell-based
HeLa [36] = assay: Induction of morphological changes in human HeLa cells assessed as cell shrinkage at 200 to 500 nM after 24 hrs by scanning electron microscopic analysis; type: functional, cell-based
[37] = target: RAC-alpha serine/threonine-protein kinase (Homo sapiens) (UniProt P31749); assay: Inhibition of AKT phosphorylation in human HeLa cells after 24 hrs by Western blot analysis; type: cell-based
RAC-alpha serine/threonine-protein kinase (Homo sapiens), sequence (P31749 whole entry): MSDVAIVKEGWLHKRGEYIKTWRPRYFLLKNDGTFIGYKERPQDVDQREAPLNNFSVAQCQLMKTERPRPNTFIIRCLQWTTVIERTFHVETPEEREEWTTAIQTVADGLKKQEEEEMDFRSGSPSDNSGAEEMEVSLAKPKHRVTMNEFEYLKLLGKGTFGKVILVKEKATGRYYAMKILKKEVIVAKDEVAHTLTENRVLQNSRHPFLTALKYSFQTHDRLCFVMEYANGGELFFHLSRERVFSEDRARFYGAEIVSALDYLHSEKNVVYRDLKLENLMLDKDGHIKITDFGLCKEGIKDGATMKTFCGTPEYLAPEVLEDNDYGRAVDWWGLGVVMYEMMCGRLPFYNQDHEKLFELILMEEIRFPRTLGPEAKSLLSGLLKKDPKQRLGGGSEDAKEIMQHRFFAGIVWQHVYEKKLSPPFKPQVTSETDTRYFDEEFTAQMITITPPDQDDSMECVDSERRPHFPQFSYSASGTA

HeLa [38] = assay: Induction of morphological changes in human HeLa cells assessed as formation of apoptotic bodies at 200 to 500 nM after 24 hrs by scanning electron microscopic analysis; type: functional, cell-based
[39] = target: Mitogen-activated protein kinase; ERK1/ERK2 (Homo sapiens) (UniProt P27361+P28482); assay: Inhibition of ERK1/2 phosphorylation in human HeLa cells at 50 to 200 nM after 24 hrs by Western blot analysis; type: cell-based
Mitogen-activated protein kinase; ERK1/ERK2 (Homo sapiens), sequence (P27361 whole entry, looked up): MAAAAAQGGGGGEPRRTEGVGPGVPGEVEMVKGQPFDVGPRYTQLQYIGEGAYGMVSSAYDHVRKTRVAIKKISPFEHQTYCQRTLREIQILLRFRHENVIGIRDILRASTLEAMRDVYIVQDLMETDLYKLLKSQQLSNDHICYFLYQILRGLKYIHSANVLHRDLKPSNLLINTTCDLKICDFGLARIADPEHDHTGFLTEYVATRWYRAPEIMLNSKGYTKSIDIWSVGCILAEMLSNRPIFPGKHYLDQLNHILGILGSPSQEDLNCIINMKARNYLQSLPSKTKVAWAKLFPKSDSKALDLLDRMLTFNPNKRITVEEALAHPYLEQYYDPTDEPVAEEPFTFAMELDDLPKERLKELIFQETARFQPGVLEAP
Mitogen-activated protein kinase; ERK1/ERK2 (Homo sapiens), sequence (P28482 whole entry, looked up): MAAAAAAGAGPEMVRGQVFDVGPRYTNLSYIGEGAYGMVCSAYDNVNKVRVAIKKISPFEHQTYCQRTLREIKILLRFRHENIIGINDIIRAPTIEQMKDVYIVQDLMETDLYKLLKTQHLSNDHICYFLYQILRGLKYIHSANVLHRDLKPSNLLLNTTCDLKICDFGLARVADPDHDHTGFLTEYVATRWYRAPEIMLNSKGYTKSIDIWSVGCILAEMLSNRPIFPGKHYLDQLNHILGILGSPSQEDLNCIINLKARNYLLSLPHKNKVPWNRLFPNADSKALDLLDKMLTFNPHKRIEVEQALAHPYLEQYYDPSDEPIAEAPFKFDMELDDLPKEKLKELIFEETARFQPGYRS

HeLa [40] = assay: Induction of apoptosis in human HeLa cells assessed as cleaved caspase-7 expression at 50 to 200 nM after 24 hrs by Western blot analysis; type: functional, cell-based
HeLa [41] = assay: Induction of apoptosis in human HeLa cells assessed as early apoptotic cells at 100 nM after 24 hrs by Annexin-V-FITC/propidium iodide staining based flow cytometry (reference value: 3.08%); type: functional
HeLa [42] = assay: Induction of apoptosis in human HeLa cells assessed as […] in cleaved PARP expression at 50 to 200 nM after 24 hrs by Western blot analysis; type: functional, cell-based
HepG2 [43] = assay: Cytotoxicity activity against human HepG2 cells after 48 hrs by MTT assay; type: functional, cell-based; settings: HepG2, 48 h
HeLa [44] = assay: Induction of morphological changes in human HeLa cells assessed as thinner microvilli at 200 to 500 nM after 24 hrs by scanning electron microscopic analysis; type: functional, cell-based
HeLa [45] = assay: Down regulation of survivin expression in human HeLa cells at 50 to 200 nM after 24 hrs by Western blot analysis; type: functional, cell-based
HeLa [46] = assay: Antiinvasive activity in human HeLa cells at 50 nM after 48 hrs by crystal violet staining based microscopic analysis; type: functional, cell-based
HeLa [47] = assay: Induction of apoptosis in human HeLa cells assessed as cleaved caspase-9 expression at 50 to 200 nM after 24 hrs by Western blot analysis; type: functional, cell-based
HeLa [48] = assay: Induction of apoptosis in human HeLa cells assessed as late apoptotic cells at 500 nM after 24 hrs by Annexin-V-FITC/propidium iodide staining based flow cytometry (reference value: 11.1%); type: functional
HeLa [49] = assay: Antiproliferative activity against human HeLa cells assessed as inhibition of cell proliferation at 100 to 200 nM after 24 hrs by Ki-67/Hoechst 33342 staining based fluorescence microscopic analysis; type: functional
HeLa [50] = assay: Induction of apoptosis in human HeLa cells assessed as early apoptotic cells at 500 nM after 24 hrs by Annexin-V-FITC/propidium iodide staining based flow cytometry (reference value: 3.08%); type: functional
HeLa [51] = assay: Induction of apoptosis in human HeLa cells assessed as viable cells at 100 nM after 24 hrs by Annexin-V-FITC/propidium iodide staining based flow cytometry (reference value: 85.8%); type: functional; settings: read-out: Activity
HeLa [52] = assay: Inhibition of colony formation in human HeLa cells assessed as reduction in colony size at 50 nM after 24 hrs by crystal violet staining based microscopic analysis; type: functional, cell-based
HeLa [53] = assay: Down regulation of FEN1 expression in human HeLa cells at 50 to 200 nM after 24 hrs by Western blot analysis; type: functional, cell-based

C[C@]12CC[C@H](O)C[C@H]1CC[C@@H]1[C@@H]2CC[C@]2(C)[C@@H](c3ccc(=O)oc3)CC[C@]12O [BUFALIN]
viability at 0.2 µM (HeLa [1]): 53.3%
IC50 (HeLa [2]): 280 nM
Activity (HeLa [3]): 30.9%
Activity (HeLa [4]): 1.86%
IC50 (HeLa [5]): 594 nM
Activity (HeLa [6]): 13.9%

C[C@]12CC[C@H](O[C@@H]3C[C@H](CO)[C@@H](O)[C@H](O)[C@H]3O)C[C@@H]1CC[C@@H]1[C@@H]2CC[C@]2(C)[C@@H](c3ccc(=O)oc3)[C@@H](O)C[C@]12O
Activity (HeLa [7]): Active
Activity (HeLa [8]): 7.28%
Activity (HeLa [9]): Active
Activity (L02): Non-Toxic
Activity (HeLa [10]): 73%
Activity (HeLa [11]): Active
inhibition (HeLa [12]): Dose-dependent effect
Activity (HeLa [13]): Active
viability at 0.2 µM (HeLa [1]): 52.9%
IC50 (MCF7 [14]): 1020 nM
Activity [15]: Active
Activity (HeLa [16]): Active
IC50 (HeLa [2]): 158 nM
Activity (HeLa [17]): Active
viability at 0.5 µM (HeLa [18]): 46.9%
inhibition [19]: Dose-dependent effect
IC50 (MCF7 [20]): 239 nM
Activity (HeLa [3]): 38.3%
Activity (HeLa [21]): 0.56%
Activity (HeLa [22]): Active
Activity (HeLa [23]): Active
Activity (HeLa [24]): Active
Activity (HeLa [25]): Active
inhibition [26]: Dose-dependent effect
Activity (HeLa [27]): Active
Activity [28]: inactive
Activity (HeLa [29]): 0.062%
IC50 (HepG2 [30]): 1410 nM
inhibition (HeLa [31]): Active
Activity (HeLa [32]): Active
Activity (HeLa [33]): Active
Activity (HeLa [4]): 0.1%
Activity (HeLa [34]): Active
inhibition (HeLa [35]): Active
IC50 (HeLa [5]): 546 nM
Activity (HeLa [36]): Active
inhibition [37]: Dose-dependent effect
Activity (HeLa [38]): Active
inhibition [39]: Active
Activity (HeLa [40]): Active
Activity (HeLa [41]): 10.2%
Activity (HeLa [42]): Active
IC50 (HepG2 [43]): 221 nM
Activity (HeLa [44]): Active
Activity (HeLa [45]): Active
Activity (HeLa [46]): Active
Activity (HeLa [6]): 8.67%
Activity (HeLa [47]): Active
Activity (HeLa [48]): 16.6%
inhibition (HeLa [49]): Active
Activity (HeLa [50]): 36%
viability at 0.1 µM (HeLa [51]): 82.5%
inhibition (HeLa [52]): Active
Activity (HeLa [53]): Active
